We go through 18 compounds from US10538497B2, “Compounds as indoleamine 2,3-dioxygenase inhibitors” (Merck Sharp & Dohme Corp., priority 2015, dated 2020).

In test [1] the target is T1, IDO1 (Homo sapiens (Human), UniProt P14902). The experiment in a line: IDO1 Cellular Assay in Hela Cells Stimulated with IFNγ. The class given is cell-based. Particulars: Hela cells stimulated with IFNγ 100 ng/mL; read-out: IDO1 HELA Cell Assay, IC50.
Test [2] deals with T1, IDO1. Description: IDO1 Enzyme Assay. The following applies: read-out: IDO1 Enzyme Assay, IC50; HIS-tagged recombinant IDO1, 40 nM.
Test [3] has as its target T1, IDO1. Description: IDO1 Human Whole Blood Assay. Type of test: cell-based. Particulars: LPS and IFNγ 100 ng/mL, kynurenine by LC/MS/MS. As to the method: IDO1 Human Whole Blood Assay
LPS and IFNγ was prepared in RPMI to a 10× of final conc. (1000 ng/mL), final concentration is 100 ng/mL.
Human whole blood was drawn in sodium heparin coated tubes from healthy internal donors. Two hundred fourty μL of blood was transferred to each of the wells of a v-bottom 96 well plate. Thirty μL of compound was transferred from intermediate dilution plate, and incubated for 15 min. […] from stimulants was then transferred to blood and mixed thoroughly. Plate was covered with breathable membrane and incubated at 37° C. for overnight (18 h).
On day 2 isotope labeled standard of kunurenine and tryptophan was made in water at 10× concentration and 30 μL was added to the blood at 3 μM final concentration. The assay plates were centrifuged at 300×G for 10 min with no brake to separate plasma from red blood cells. Sixty μL of plasma samples was removed without disturbing red blood cells. Plasma was diluted with RPMI in 1:1 ratio and proteins were precipitated out with two volume of Acetonitrile. The plates was centrifuged at 4000×G for 60 min. Twenty μL of supernatant was carefully transferred to a 384 well plate contain 40 μL of 0.1% formic acid in water and analysed by LC/MS/MS.
LC/MS/MS analyses were performed using Thermo Fisher's LX4-TSQ Quantum Ultra system. This system consists of four Agilent binary high-performance liquid chromatography (HPLC) pumps and a TSQ Quantum Ultra triple quadrupole MS/MS instrument. For each sample, 5 μL were injected onto an Atlantis T3 column column (2.1 mm×150 mm, 3 μm particle size) from Waters. The mobile phase gradient pumped at 0.8 mL/min was used to elute the analytes from the column at 25° C. The elution started at 0% B increasing linearly to 25% B at 6.5 min, holding at 25% for 1 min, re-equilibrating to 10 min. Mobile phase A consisted of 0.1% formic acid in water. Mobile phase B consisted of 0.1% of formic acid in acetonitrile. Data was acquired in positive mode using a HESI interface. The operational parameters for the TSQ Quantum Ultra instrument were a spray voltage of 4000 V, capillary temperature of 380° C., vaporizer temperature 400° C., shealth gas 60 arbitrary units, Aux gas 20 arbitrary units, tube lens 85 and collision gas 1.2 mTorr. SRM chromatograms of kynurenine (Q1: 209.2>Q3:94.0) and internal standard (Q1: 215.3>Q3:98.2) were collected for 90 sec. The peak area was integrated by Xcalibur Quan software. The ratios between the kynurenine generated in the reaction and 2D6-Kynurenine spiked-in internal standard were used to generate percentage inhibition and IC50 values. Compounds were titrated and IC50's were calculated by 4 parameter sigmoidal curve fitting formula.

For test [4], the target named is T1, IDO1. Description: IDO1 Cellular Assay in Frozen HEK293 Cells Transiently Transfected with Human IDO1. Type of test: cell-based. The following applies: read-out: IDO1 HEK293 Cell Assay, IC50.
Where [5] appears, read: HEK293 cells transiently transfected with human IDO1.

T1 sequence (P14902 whole entry): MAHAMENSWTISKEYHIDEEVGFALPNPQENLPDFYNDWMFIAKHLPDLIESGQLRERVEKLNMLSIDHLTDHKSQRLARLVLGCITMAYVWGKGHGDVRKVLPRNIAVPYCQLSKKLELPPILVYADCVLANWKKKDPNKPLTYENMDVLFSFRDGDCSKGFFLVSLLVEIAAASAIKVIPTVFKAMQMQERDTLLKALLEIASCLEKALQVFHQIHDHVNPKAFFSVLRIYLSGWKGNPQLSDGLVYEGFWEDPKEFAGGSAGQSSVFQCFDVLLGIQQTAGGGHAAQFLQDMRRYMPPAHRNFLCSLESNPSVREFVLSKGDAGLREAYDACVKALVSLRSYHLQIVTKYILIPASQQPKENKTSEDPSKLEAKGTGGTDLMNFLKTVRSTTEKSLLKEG

In the case of `COCCNS(=O)(=O)NCCSc1nonc1/C(=N/O)Nc1ccc(F)c(Br)c1` [Example 31, N-(3-bromo-4-fluorophenyl)-N′-hydroxy-4-((2-((N-(2-methoxyethyl)sulfamoyl)amino)ethyl)thio)-1,2,5-oxadiazole-3-carboximidamide], the IC50 is 37.4 nM on IDO1 [1], 43.4 nM on IDO1 [2], 643 nM against IDO1 [3] and 10.2 nM at IDO1 [4] (setting [5]).

Take `O=c1ccc(CSc2nonc2/C(=N/O)Nc2ccc(F)c(Br)c2)n[nH]1` [Example 35, N-(3-bromo-4-fluorophenyl)-N′-hydroxy-4-(((6-oxo-1,6-dihydropyridazin-3-yl)methyl)thio)-1,2,5-oxadiazole-3-carboximidamide]: the IC50 on IDO1 [1] is 64.6 nM; on IDO1 [2], 34.9 nM; against IDO1 [3], 923 nM; at IDO1 [4] (setting [5]) it was 77.7 nM.

Turning to `CC(=O)NCCSc1nonc1/C(=N/O)Nc1ccc(F)c(C#N)c1` [Example 37, N-(2-((4-(N-(3-cyano-4-fluorophenyl)-N′-hydroxycarbamimidoyl)-1,2,5-oxadiazol-3-yl)thio)ethyl)acetamide], the 50% inhibitory concentration (IC50) at IDO1 [1] came to 59.4 nM; on IDO1 [2], 104 nM; on IDO1 [3], 469 nM; at IDO1 [4] (setting [5]) it was 83.1 nM.

In the case of `N#Cc1cc(N/C(=N\O)c2nonc2SCCNC(=O)C2CC2)ccc1F` [Example 40, N-(2-((4-(N-(3-cyano-4-fluorophenyl)-N′-hydroxycarbamimidoyl)-1,2,5-oxadiazol-3-yl)thio)ethyl)cyclopropanecarboxamide], the IC50 worked out at 182 nM at IDO1 [1], 76.2 nM at IDO1 [2], 1670 nM against IDO1 [3] and 92.1 nM on IDO1 [4] (setting [5]).

For the compound `CNC(=O)CSc1nonc1/C(=N/O)Nc1ccc(F)c(Br)c1` [Example 41, 2-((4-(N-(3-bromo-4-fluorophenyl)-N′-hydroxycarbamimidoyl)-1,2,5-oxadiazol-3-yl)thio)-N-methylacetamide], the IC50 on IDO1 [1] turned out to be 17.6 nM; at IDO1 [2], 43.1 nM; against IDO1 [3], 150 nM; at IDO1 [4] (setting [5]), 22.2 nM.

In the case of `COC(=O)CNP(=O)(CCSc1nonc1/C(=N/O)Nc1ccc(F)c(Br)c1)NCC(=O)OC` [Example 44, Dimethyl 2,2′-(((2-((4-(N-(3-bromo-4-fluorophenyl)-N′-hydroxycarbamimidoyl)-1,2,5-oxadiazol-3-yl)thio)ethyl)phosphoryl)bis(azanediyl))(Z)-diacetate], the IC50 was 8.6 nM at IDO1 [1], 18.1 nM on IDO1 [2], 130 nM against IDO1 [3] and 17.5 nM at IDO1 [4] (setting [5]).

As for `CNC(=O)NCCSc1nonc1/C(=N/O)Nc1ccc(F)c(Br)c1` [Example 45, N-(3-bromo-4-fluorophenyl)-N′-hydroxy-4-((2-(3-methylureido)ethyl)thio)-1,2,5-oxadiazole-3-carboximidamide], the IC50 at IDO1 [1] turned out to be 47.7 nM; on IDO1 [2], 22.5 nM; against IDO1 [3], 405 nM; at IDO1 [4], 24.3 nM.

`O=C1CC[C@@H](CSc2nonc2/C(=N/O)Nc2ccc(F)c(Br)c2)N1` [Example 84, N-(3-bromo-4-fluorophenvl)-N′-hydroxy-4-({[(2S)-5-oxopyrrolidin-2-yl]methyl}sulfanyl)-1,2,5-oxadiazole-3-carboximidamide]: the concentration for half-maximal inhibition (IC50) at IDO1 [1] came to 27.2 nM; on IDO1 [2] it was 37.5 nM; at IDO1 [3] it was 184 nM; on IDO1 [4] (setting [5]), 33.1 nM.

For the compound `O=c1cccc(CSc2nonc2/C(=N/O)Nc2ccc(F)c(Br)c2)[nH]1` [Example 86, N-(3-bromo-4-fluorophenyl)-N′-hydroxy-4-{[(6-oxo-1,6-dihydropyridin-2-yl)methyl]sulfanyl}-1,2,5-oxadiazole-3-carboximidamide], the IC50 at IDO1 [1] is 15.7 nM; at IDO1 [2] it was 32.3 nM; against IDO1 [3], 4120 nM; on IDO1 [4] (setting [5]) it was 41.6 nM.

`Cn1c(CSc2nonc2/C(=N/O)Nc2ccc(F)c(Br)c2)n[nH]c1=O` [Example 98, N-(3-bromo-4-fluorophenyl)-N′-hydroxy-4-{[(4-methyl-5-oxo-4,5-dihydro-1H-1,2,4-triazol-3-yl)methyl]sulfanyl}-1,2,5-oxadiazole-3-carboximidamide]: the IC50 is 57.1 nM on IDO1 [1], 37.8 nM on IDO1 [2], 635 nM at IDO1 [3] and 83 nM at IDO1 [4] (setting [5]).

`Cc1cc(CSc2nonc2/C(=N/O)Nc2ccc(F)c(Br)c2)[nH]c(=O)c1` [Example 102, N-(3-bromo-4-fluorophenyl)-N′-hydroxy-4-{[(4-methyl-6-oxo-1,6-dihydropyridin-2-yl)methyl]sulfanyl}-1,2,5-oxadiazole-3-carboximidamide]: the IC50 on IDO1 [1] was 81.8 nM; on IDO1 [2], 72.4 nM; against IDO1 [3], above 10000 nM; on IDO1 [4] (setting [5]), 44.4 nM.

With `COC(=O)CNP(=O)(CSc1nonc1/C(=N/O)Nc1ccc(F)c(Br)c1)NCC(=O)OC` [Example 120, methyl 6-[({4-[N-(3-bromo-4-fluorophenyl)-N′-hydroxycarbamimidoyl]-1,2,5-oxadiazol-3-yl}sulfanyl)methyl]-3-oxo-2-oxa-5,7-diaza-6-phosphanonan-9-oate 6-oxide], the IC50 on IDO1 [1] was determined as 28.4 nM; on IDO1 [2], 14 nM; against IDO1 [3] it was 155 nM; on IDO1 [4] (setting [5]), 13.4 nM.

In the case of `N[C@H](CO)CSc1nonc1/C(=N/O)Nc1ccc(F)c(Br)c1` [Example 125, 4-{[(2R)-2-amino-3-hydroxypropyl]sulfanyl}-N-(3-bromo-4-fluorophenyl)-N′-hydroxy-1,2,5-oxadiazole-3-carboximidamide], the IC50 at IDO1 [1] stood at 131 nM; at IDO1 [2], 51.9 nM; on IDO1 [3], 745 nM; on IDO1 [4] (setting [5]) it was 45 nM.

On to `N#Cc1cc(N/C(=N\O)c2nonc2SC[C@@H](O)CO)ccc1F` [Example 140, N-(3-cyano-4-fluorophenyl)-4-{[(2S)-2,3-dihydroxypropyl]sulfanyl}-N′-hydroxy-1,2,5-oxadiazole-3-carboximidamide], for which the IC50 came out at 245 nM on IDO1 [1], 96.7 nM at IDO1 [2], 384 nM against IDO1 [3] and 269 nM at IDO1 [4] (setting [5]).

With `O=C(CSc1nonc1/C(=N/O)Nc1ccc(F)c(Br)c1)NC(CO)CO` [Example 145, 2-({4-[N-(3-bromo-4-fluorophenyl)-N′-hydroxycarbamimidoyl]-1,2,5-oxadiazol-3-yl}sulfanyl)-N-[2-hydroxy-1-(hydroxymethyl)ethyl]acetamide], the half-inhibitory concentration (IC50) was 68 nM at IDO1 [1], 50.9 nM on IDO1 [2], 1270 nM against IDO1 [3] and 77.1 nM on IDO1 [4] (setting [5]).

Turning to `CN1C(=O)NC[C@H]1CSc1nonc1/C(=N/O)Nc1ccc(F)c(C#N)c1` [Example 146], the IC50 at IDO1 [1] worked out at 398 nM; on IDO1 [2], 155 nM; against IDO1 [3], 1400 nM; on IDO1 [4] (setting [5]) it was 222 nM.

With `N#Cc1cc(N/C(=N\O)c2nonc2SC[C@H](O)CO)ccc1F` [Example 147, N-(3-cyano-4-fluorophenyl)-4-{[(2R)-2,3-dihydroxypropyl]sulfanyl}-N′-hydroxy-1,2,5-oxadiazole-3-carboximidamide], the IC50 turned out to be 494 nM at IDO1 [1], 154 nM on IDO1 [2], 1210 nM on IDO1 [3] and 373 nM at IDO1 [4] (setting [5]).

For `N#Cc1cc(N/C(=N\O)c2nonc2SC[C@H]2CCC(=O)N2)ccc1F` [Example 148, N-(3-cyano-4-fluorophenyl)-N′-hydroxy-4-({[(2R)-5-oxopyrrolidin-2-yl]methyl}sulfanyl)-1,2,5-oxadiazole-3-carboximidamide], the IC50 at IDO1 [1] is 303 nM; on IDO1 [2], 172 nM; against IDO1 [3] it was 1760 nM; on IDO1 [4] (setting [5]) it was 209 nM.
